According to ChEMBL document CHEMBL5625204, “Synthesis and pharmacodynamic evaluation of naphthalene derivatives against influenza A virus in vitro and in vivo” (Eur J Med Chem, 2023):
pEC50: −log10 of the molar value. Active and inactive are the calls of the source. The rule behind the calls is not given here.

Assays:
Influenza A virus [1] = assay: Antiviral activity against Influenza A virus H1N1 (A/Weiss/43) infected in MDCK cells assessed as reduction in cell pathological changes at 25 to 50 uM by microscopic analysis; assay type: functional, organism-based; details: dose 25-50 µM
[2] = Selectivity index, ratio of CC50 for dog MDCK cells to EC50 for antiviral activity against Influenza A virus H3N2 (A/California/2004) infected in MDCK cells; assay type: toxicity, cell-based; details: read-out: Ratio CC50/EC50
[3] = Toxicity in BALB/c mouse infected with Influenza A virus H1N1 (A/Weiss/43) assessed as kidney pathological changes at 25 to 100 mg/kg/day administered intranasally for 6 days starting from 3 hrs post-viral infection by Hematoxylin-Eosin staining based analysis; assay type: organism-based; details: in vivo, inhaled_or_intranasal, 144 h, dose 25-100 mg/kg/day, route nas, time 6 day
[4] = Cytotoxicity against dog MDCK cells assessed as reduction in cell viability incubated for 72 hrs by MTT assay; assay type: toxicity, cell-based, Canis lupus familiaris
Influenza A virus [5] = assay: Antiviral activity against Influenza A virus H1N1 (A/Weiss/43)-infected in BALB/c mouse assessed as improvement in body weight at 25 to 100 mg/kg/day administered intranasally for 6 days starting from 3 hrs post-viral infection; assay type: functional, organism-based; details: dose 25-100 mg/kg/day, route nas, time 6.0 day
Influenza A virus [6] = assay: Antiviral activity against Influenza A virus H1N1 (A/Weiss/43)-infected in BALB/c mouse assessed as reduction in IL-8 gene expression in lungs at 25 to 100 mg/kg/day administered intranasally for 6 days starting from 3 hrs post-viral infection by qRT-PCR analysis; assay type: functional, organism-based; details: dose 25-100 mg/kg/day, route nas, time 6.0 day
Influenza A virus [7] = assay: Antiviral activity against Influenza A virus H1N1 infected in human A549 cells assessed as decrease in apoptosis inducing factor gene expression by measuring decrease in TRAIL gene expression at 25 to 50 uM measured after 24 hrs by qRT-PCR analysis; assay type: functional, organism-based; details: dose 25-50 µM
Influenza A virus [8] = assay: Antiviral activity against Influenza A virus H3N2 (A/California/2004) infected in MDCK cells assessed as reduction of viral replication incubated for 72 hrs by TCID50 method; assay type: functional, organism-based
Influenza A virus [9] = assay: Antiviral activity against Influenza A virus H1N1 infected in human A549 cells assessed as decrease in apoptosis by measuring decrease in cleaved caspase-9 protein expression at 25 to 50 uM measured after 24 hrs by western blot analysis; assay type: functional, organism-based; details: dose 25-50 µM
Influenza A virus [10] = assay: Antiviral activity against Influenza A virus H1N1 infected in dog MDCK cells assessed as decrease in apoptosis by measuring proportion of late apoptotic cells at 50 uM measured after 72 hrs by AnnexinV-FITC/PI staining based flow cytometry (reference value: 10.3%); assay type: functional; set-up: scale not given: the % may be the effect or the level left
Influenza A virus [11] = assay: Inhibition of Influenza A virus replication infected in dog MDCK cells assessed as downregulation of virus M2 protein expression by measuring decrease in green fluorescence intensity at 25 to 50 uM measured after 24 hrs by immunofluorescence analysis; assay type: functional, organism-based; details: dose 25-50 µM
Influenza A virus [12] = assay: Antiviral activity against Influenza A virus H1N1 infected in human A549 cells assessed as decrease in RIG-1 pathway related gene expression by measuring decrease in MAVS gene expression at 25 to 50 uM measured after 24 hrs by qRT-PCR analysis; assay type: functional, organism-based; details: dose 25-50 µM
Influenza A virus [13] = assay: Antiviral activity against Influenza A virus H1N1 (A/Weiss/43)-infected in BALB/c mouse assessed as reduction in viral M mRNA expression in lungs at 25 to 100 mg/kg/day administered intranasally for 2 to 6 days starting from 3 hrs post-viral infection by qRT-PCR analysis; assay type: functional, organism-based; details: dose 25-100 mg/kg/day, route nas, time 2-6 day
Influenza A virus [14] = assay: Antiviral activity against Influenza A virus H1N1 (A/Weiss/43)-infected in BALB/c mouse assessed as reduction in TNF-alpha gene expression in lungs at 25 to 100 mg/kg/day administered intranasally for 6 days starting from 3 hrs post-viral infection by qRT-PCR analysis; assay type: functional, organism-based; details: dose 25-100 mg/kg/day, route nas, time 6.0 day
Influenza A virus [15] = assay: Antiviral activity against Influenza A virus H1N1 (A/Weiss/43)-infected in BALB/c mouse assessed as reduction in TLR-7 gene expression in lungs at 25 to 100 mg/kg/day administered intranasally for 6 days starting from 3 hrs post-viral infection by qRT-PCR analysis; assay type: functional, organism-based; details: dose 25-100 mg/kg/day, route nas, time 6.0 day
Influenza A virus [16] = assay: Antiviral activity against Influenza A virus H1N1 infected in dog MDCK cells assessed as decrease in apoptosis by measuring proportion of late apoptotic cells at 25 uM measured after 72 hrs by AnnexinV-FITC/PI staining based flow cytometry (reference value: 10.3%); assay type: functional; set-up: scale not given: the % may be the effect or the level left
Influenza A virus [17] = assay: Antiviral activity against Influenza A virus H1N1 (A/Weiss/43)-infected in BALB/c mouse assessed as reduction in OAS1 gene expression in lungs at 25 to 100 mg/kg/day administered intranasally for 6 days starting from 3 hrs post-viral infection by qRT-PCR analysis; assay type: functional, organism-based; details: dose 25-100 mg/kg/day, route nas, time 6.0 day
[18] = Toxicity in dog MDCK cells assessed as ROS production by measuring proportion of cells with excessive ROS accumulation at 50 uM measured after 36 hrs by DCFH-DA staining based flow cytometry (reference value: 0.094%); assay type: cell-based, Canis lupus familiaris
[19] = Selectivity index, ratio of CC50 for dog MDCK cells to EC50 for antiviral activity against Influenza A virus H1N1 (A/Virginia/ATCC2/2009) infected in MDCK cells; assay type: toxicity, cell-based; details: read-out: Ratio CC50/EC50
Influenza A virus [20] = assay: Antiviral activity against Influenza A virus H1N1 infected in human A549 cells assessed as decrease in apoptosis inducing factor gene expression by measuring decrease in FasL gene expression at 25 to 50 uM measured after 24 hrs by qRT-PCR analysis; assay type: functional, organism-based; details: dose 25-50 µM
Influenza A virus [21] = assay: Antiviral activity against Influenza A virus H1N1 infected in human A549 cells assessed as decrease in RIG-1 pathway related protein expression by measuring decrease in RIG-1 protein expression at 25 to 50 uM measured after 24 hrs by western blot analysis; assay type: functional, organism-based; details: dose 25-50 µM
Influenza A virus [22] = assay: Antiviral activity against Influenza A virus H1N1 infected in human A549 cells assessed as decrease in cytokine gene expression by measuring decrease in IL-1 beta gene expression at 25 to 50 uM measured after 24 hrs by qRT-PCR analysis; assay type: functional, organism-based; details: dose 25-50 µM
Influenza A virus [23] = assay: Antiviral activity against Influenza A virus H1N1 (A/Weiss/43)-infected in BALB/c mouse assessed as reduction in pulmonary inflammation at 25 to 100 mg/kg/day administered intranasally for 6 days starting from 3 hrs post-viral infection by Hematoxylin-Eosin staining based analysis; assay type: functional, organism-based; details: dose 25-100 mg/kg/day, route nas, time 6.0 day
Influenza A virus [24] = assay: Antiviral activity against Influenza A virus H1N1 infected in human A549 cells assessed as decrease in cytokine gene expression by measuring decrease in IP-10 gene expression at 25 to 50 uM measured after 24 hrs by qRT-PCR analysis; assay type: functional, organism-based; details: dose 25-50 µM
Influenza A virus [25] = assay: Antiviral activity against Influenza A virus H1N1 infected in human A549 cells assessed as decrease in apoptosis by measuring decrease in cleaved PARP protein expression at 25 to 50 uM measured after 24 hrs by western blot analysis; assay type: functional, organism-based; details: dose 25-50 µM
Influenza A virus [26] = assay: Antiviral activity against Influenza A virus H1N1 (A/Weiss/43)-infected in BALB/c mouse assessed as reduction in lung tissue damage administered intranasally for 4 to 6 days starting from 3 hrs post-viral infection; assay type: functional, organism-based; details: dose 25-100 mg/kg/day, route nas, time 4-6 day
Influenza A virus [27] = assay: Antiviral activity against Influenza A virus H1N1 (A/Weiss/43) infected in MDCK cells assessed as reduction of viral replication treated for 2 hrs before viral infection and measured after 72 hrs by TCID50 method; assay type: functional, organism-based

With `O=[N+]([O-])c1ccc(S(=O)(=O)N(Cc2ccccc2)c2cccc3ccccc23)cc1` the Activity (Influenza A virus [1]) was “Active”, the selectivity ratio [2] was over 121 and the Activity [3] was “Non-Toxic”. For the same compound, the CC50 at 72 h [4] was over 800 µM, the Activity (Influenza A virus [5]) was “Active” and the Activity (Influenza A virus [6]) was “Active”. For the same compound, the inhibition (Influenza A virus [7]) was “Active”, the pEC50 (Influenza A virus [8]) was 5.18 and the inhibition (Influenza A virus [9]) was “Active”. The Activity (Influenza A virus [10]) was 1.09%, the inhibition (Influenza A virus [11]) was “Active” and the inhibition (Influenza A virus [12]) was “Active”. The Activity (Influenza A virus [13]) was “Active”, the Activity (Influenza A virus [14]) was “Active” and the Activity (Influenza A virus [15]) was “Active”. The Activity (Influenza A virus [16]) was 1.21%, the Activity (Influenza A virus [17]) was “Active” and the Activity [18] was 1.36%. For the same compound, the selectivity ratio [19] was over 240, the inhibition (Influenza A virus [20]) was “Active” and the inhibition (Influenza A virus [21]) was “Active”. The inhibition (Influenza A virus [22]) was “Active”, the Activity (Influenza A virus [23]) was “Dose-Dependent Effect” and the inhibition (Influenza A virus [24]) was “Active”. The inhibition (Influenza A virus [25]) was “Active”, the Activity (Influenza A virus [26]) was “Dose-Dependent Effect” and the pEC50 (Influenza A virus [27]) was 5.12.
